pEC50: −log10 of the molar value. Read-outs that look alike come from different tables or passages of the source.
Assays:
[1] = system: HT-1080 (fibrosarcoma) cells; test: Primary screening by ferroptosis assay (Erastin-induced, cell viability, CellTiter-Glo); assay type: cell-based; details: HT-1080 cells, % remaining activity, read-out: EC50, Inhibition for Ferroptosis in HT-1080 Cell
In short: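 HT-1080 cells seeded overnight, then treated in triplicate with 12-point 2-fold compound dilutions prepared in medium containing 400 μM Erastin (stock before transfer). Viability read by CellTiter-Glo luminescence after 30 h. % remaining activity normalised to vehicle and Erastin-only background; EC50 from non-linear regression.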

3T3-L1 cells = test: Apoptosis assay (Caspase-Glo 3/7, Actinomycin D induced); assay type: cell-based; details: 100 nM Actinomycin D, 48 hours, Caspase-Glo 3/7, 2 hours pre-treatment, read-out: EC50, Inhibition for Apoptosis in 3T3-L1 Cell induced by Actinomycin D
Experimental: Cell Lines and Media. 3T3-L1 cells were obtained from American Type Culture Collection. Cells were grown in DMEM completed media, 10% FBS, and penicillin-streptomycin mix (Invitrogen). Cells were maintained at 37° C. and 5% CO2 in a tissue culture incubator.
Apoptosis Assay. […] We used this assay to screen our compounds for apoptosis inhibition. Briefly, 40 μL of 3000 3T3-L1 cells were seeded per well in 384 well plates, cells were allowed to adhere overnight. In the next day, prepare the Actinomycin D as the apoptosis inducing agent into 100 μM DMSO stock. Prepare the test compounds into 10 mM DMSO stock. Serial dilute the compound into 10 points by 3-fold dilution with DMSO. Pre-treat the 3T3-L1 cells with test compound by transfer 40 nL of stock of serial concentration in triplicate wells using acoustic fluid transfer, incubate for 2 hours. Then transfer 40 nL of 100 μM of Actinomycin D (final concentration is 100 nM) into designated wells using acoustic fluid transfer. Incubate the assay plates at 37° C., 5% CO2, 95% humidity incubator for 48 hours. For caspase assay, add 20 μL/well of Caspase-Glo>3/7 reagent (Promega) into test wells. Incubate for 30 minutes at room temperature to stabilize the luminescence signal. Read the plate with EnSpire Multimode Plate Reader (PerkinElmer). Calculate the EC50 value using formula equation 201: y−(A+((B−A)/(1+((x/C)^D)))) from the XLFit (Excel add-in software), where
A: Average mean of vehicle samples
B: Average mean of cells treated with 100 nM AcD
Z′ factor was used to describe the screening assay perfonuance. The Z′ factor value was >0.5 in all the test plates which indicated the assay was qualified and the IC50 value was reliable for all tested compounds.

| SMILES | pEC50 ([1]; 30 hours) | pEC50 (3T3-L1 cells; Mus musculus, 3T3-L1) | pEC50 ([1]; Homo sapiens, 30 hours) | pEC50 ([1]; Homo sapiens, HT-1080, 30 h) | pEC50 (3T3-L1 cells) |
| --- | --- | --- | --- | --- | --- |
| CC(C)C[C@@H](/C=C/[C@H](Cc1ccccc1)C(=O)N1CCC[C@H]1C(=O)N[C@@H](CCCNC(=O)OCc1ccccc1)C(=O)NC1CC(C)(C)N(O)C(C)(C)C1)NC(=O)OC(C)(C)C [Example IX, Benzyl N-[(4S)—4-{[(2S)-1-[(2S,3E,5S)-2-benzyl-5-{[(tert-butoxy)carbonyl]amino}-7-methyloct-3-enoyl]pyrrolidin-2-yl]formamido}-4-[(1-hydroxy-2,2,6,6-tetramethylpiperidin-4-yl)carbamoyl]butyl]carbamate] | 6.58 | 5.86 |  |  |  |
| CC(C)C[C@@H](/C=C/[C@H](Cc1ccccc1)C(=O)N1CCC[C@@H]1C(=O)N[C@H](C(=O)N[C@@H](CCCNC(=O)OCc1ccccc1)C(=O)NC1CC(C)(C)N(O)C(C)(C)C1)C(C)C)NC(=O)OC(C)(C)C [Example VII, Benzyl N-[(4S)-4-[(2S)—2-{[(2R)-1-[(2S,3E,5S)-2-benzyl-5-{[(tert-butoxy)carbonyl]amino}-7-methyloct-3-enoyl]pyrrolidin-2-yl]formamido}-3-methylbutanamido]-4-[(1-hydroxy-2,2,6,6-tetramethylpiperidin-4-yl)carbamoyl]butyl]carbamate] |  | 5.33 | 6.47 |  |  |
| CC(C)C[C@@H](/C=C/[C@H](Cc1ccccc1)C(=O)N1CCC[C@H]1C(=O)N[C@@H](C(=O)N[C@@H](CCCNC(=O)OCc1ccccc1)C(=O)NC1CC(C)(C)N(O)C(C)(C)C1)C(C)C)NC(=O)OCC1CC1 [Example X, Cyclopropylmethyl N-[(4S,5E,7S)-7-benzyl-8-[(2S)—2-{[(1R)—1-{[(1S)—4-{[(benzyloxy)carbonyl]amino}-1-[(1-hydroxy-2,2,6,6-tetramethylpiperidin-4-yl)carbamoyl]butyl]carbamoyl}-2-methylpropyl]carbamoyl}pyrrolidin-1-yl]-2-methyl-8-oxooct-5-en-4-yl]carbamate] |  | 5.86 | 6.55 |  |  |
| CC(C)C[C@@H](/C=C/[C@H](Cc1ccccc1)C(=O)N1CCC[C@H]1C(=O)N[C@@H](CCCNC(=O)OC1CC(C)(C)N(O)C(C)(C)C1)C(=O)OC(C)C)NC(=O)OC(C)(C)C [Example XXIX, Propan-2-yl (2S)—2-{[(2S)-1-[(2S,3E,5S)-2-benzyl-5-{[(tert-butoxy)carbonyl]amino}-7-methyloct-3-enoyl]pyrrolidin-2-yl]formamido}-5-({[(1-oxyl-2,2,6,6-tetramethylpiperidin-4-yl)oxy]carbonyl}amino)pentanoate] |  | 5.36 |  | 7.14 |  |
| CC(C)C[C@@H](/C=C/[C@H](Cc1ccccc1)C(=O)N1CCC[C@H]1C(=O)N[C@@H](CCCCNC(=O)OCc1ccccc1)C(=O)NC1CC(C)(C)N(O)C(C)(C)C1)NC(=O)OC(C)(C)C [Example XXVI, Benzyl N—[(5 S)—5-{[(2S)-1-[(2S,3E,5S)-2-benzyl-5-{[(tert-butoxy)carbonyl]amino}-7-methyloct-3-enoyl]pyrrolidin-2-yl]formamido}-5-[(1-oxyl-2,2,6,6-tetramethylpiperidin-4-yl)carbamoyl]pentyl]carbamate] |  | 6.17 |  | 6.85 |  |
| CC(C)CC(C=CC(Cc1ccccc1)C(=O)N1CCCC1C(=O)NC(CCCNC(=O)OC1CC(C)(C)N([O])C(C)(C)C1)C(N)=O)NC(=O)OC(C)(C)C [Example XXVIII, tert-Butyl N-[(4S,5E,7S)-7-benzyl-8-[(2S)—2-{[(1S)-1-carbamoyl-4-({[(1-oxyl-2,2,6,6-tetramethylpiperidin-4-yl)oxy]carbonyl}amino-)butyl]carbamoyl}pyrrolidin-1-yl]-2-methyl-8-oxooct-5-en-4-yl]carbamate] | 6.60 |  |  |  | 5.41 |
| COC(=O)[C@H](CCCNC(=O)OC1CC(C)(C)N(O)C(C)(C)C1)NC(=O)[C@@H](NC(=O)[C@@H]1CCCN1C(=O)[C@H](/C=C/[C@H](CC(C)C)NC(=O)OC(C)(C)C)Cc1ccccc1)C(C)C [Example XXXVIII, (S)—Methyl 2-((S)-2-((S)-1-((2S,5S,E)-2-benzyl-5-((tert-butoxycarbonyl)amino)-7-methyloct-3-enoyl)pyrrolidine-2-carboxamido)-3-methylbutanamido)—5-((((1-oxyl-2,2,6,6-tetramethylpiperidin-4-yl)oxy)carbonyl)amino)pentanoate] |  | 5.58 |  | 7.12 |  |
| CC(C)C[C@@H](/C=C/[C@H](Cc1ccccc1)C(=O)N1CCC[C@H]1C(=O)N[C@@H](CCCNC(=O)OC1CC(C)(C)N(O)C(C)(C)C1)C(=O)NC(C)C)NC(=O)OC(C)(C)C [Example XXXXIV, tert-Butyl N-[(4S,5E,7S)-7-benzyl-8-[(2S)—2-{[(1S)-4-({[(1-oxyl-2,2,6,6-tetramethylpiperidin-4-yl)oxy]carbonyl}amino)-1-[(propan-2-yl)carbamoyl]butyl]carbamoyl}pyrrolidin-1-yl]-2-methyl-8-oxooct-5-en-4-yl]carbamate] |  | 6.20 |  | 6.85 |  |

Source: patent US10889572B2, “Reactive oxygen species scavengers and use for treating diseases” (XW LABORATORIES INC., priority 2017, dated 2021)
